The structures appear in SMILES notation.

The target in one experiment is T1, renin (Homo sapiens, UniProt P00797).
T1 sequence (P00797 67-406): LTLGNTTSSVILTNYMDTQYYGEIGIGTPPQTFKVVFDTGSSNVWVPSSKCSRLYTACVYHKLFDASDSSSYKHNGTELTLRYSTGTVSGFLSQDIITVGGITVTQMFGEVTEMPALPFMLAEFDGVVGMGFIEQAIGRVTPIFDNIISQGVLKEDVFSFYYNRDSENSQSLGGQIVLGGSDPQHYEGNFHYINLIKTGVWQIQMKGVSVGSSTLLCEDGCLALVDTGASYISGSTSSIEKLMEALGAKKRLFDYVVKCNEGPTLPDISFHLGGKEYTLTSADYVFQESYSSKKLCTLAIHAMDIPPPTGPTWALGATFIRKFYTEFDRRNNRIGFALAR
The experiment can be described thus: in vitro renin inhibitory activity, radioimmunoassay for angiotensin I. The format is biochemical. The note with it: @ 1 × 10^-8 (molar); 2 hours at 37°. Here is the method:
The effectiveness of the aforementioned compounds is determined by a test for in vitro renin inhibitory activity. This activity is determined by a standard radioimmunoassay for angiotensin I. ln this assay the enzyme, renin, incubated for 2 hours at 37° in the presence of a substrate, angiotensinogen, generates the product, angiotensin I. Test compounds are added to the incubation mixture. Relative activity is reported as the percent inhibition at the specified molar concentration or as the IC50, which is the molar concentration of test compound causing a 50% inhibition of the renin activity.
Take `CC(C)C[C@H](O)[C@H](O)[C@H](CC1CCCCC1)NC(=O)CC1OC1[C@H](Cc1ccccc1)NC(=O)OC(C)(C)C` (stereo partly drawn): the “In Vitro Activity, percent inhibition” value is listed as 21%.

For `CC(C)C[C@H](O)[C@H](O)[C@H](CC1CCCCC1)NC(=O)CCC(=O)[C@H](Cc1ccccc1)NC(=O)OCc1ccccc1` [ZPHE.psi.[COCH2 ]GLYCAD, Z-PHE.PSI.[COCH2]GLY-CAD], the “In Vitro Activity, percent inhibition” value is 1%.

Still in this experiment, the particulars now being: @ 3 × 10^-8 (molar); 2 hours at 37°.
Turning to `CC(C)C[C@H](O)[C@H](O)[C@H](CC1CCCCC1)NC(=O)C/C=C/[C@H](Cc1ccccc1)NC(=O)OC(C)(C)C` [BOCPHE.psi.[CHCH]GLYCAD, BOC-PHE.PSI.[E-CH=CH]GLY-CAD], the “In Vitro Activity, percent inhibition” value came out at 1%.

Still in this experiment, the particulars now being: @ 10^-6 (molar; also 1 × 10^-6); 2 hours at 37°.
With `CC(C)C[C@H](O)[C@H](O)[C@H](CC1CCCCC1)NC(=O)C(N)CC(O)[C@H](Cc1ccccc1)NC(=O)OC(C)(C)C` (single isomer, unassigned) [drawing 42, BOC-PHE.PSI.[CHOHCH2 ]CH(NH2)CO-CAD], the “In Vitro Activity, percent inhibition” value is on record as 45%.

On to `CC(C)C[C@H](O)[C@H](O)[C@H](CC1CCCCC1)NC(=O)C(N)CC(O)[C@H](Cc1ccccc1)NC(=O)OC(C)(C)C` (single isomer, unassigned) [drawing 43, BOC-PHE.PSI.[CHOHCH2 ]CH(NH2)CO-CAD], for which the “In Vitro Activity, percent inhibition” value is given as 26%.

As to `CC(C)C[C@H](O)[C@H](O)[C@H](CC1CCCCC1)NC(=O)CCC(O)[C@@H](N)Cc1ccccc1` (stereo partly drawn) [PHE.psi.[CHOHCH2 ]GLYCAD], the “In Vitro Activity, percent inhibition” value is on record as 28%.

Still in this experiment, the particulars now being: renin incubated 2 hours at 37° with angiotensinogen; values marked * = IC50; read-out: In Vitro Activity, IC50 (molar concentration causing a 50% inhibition of the renin activity).
For the compound `CC(C)C[C@H](O)[C@H](O)[C@H](CC1CCCCC1)NC(=O)CCC(O)[C@H](Cc1ccccc1)NC(=O)OC(C)(C)C` (mixture of isomers) [BOCPHE.psi.[CHOHCH2 ]GLYCAD (Mixture of Diastereomers), BOC-PHE.PSI.[CHOHCH2 ]GLY-CAD (Mixture of Diastereomers)], the IC50 was found to be 30 nM.

For `CC(C)C[C@H](O)[C@H](O)[C@H](CC1CCCCC1)NC(=O)CCC(O)[C@H](Cc1ccccc1)NC(=O)OCc1ccccc1` (mixture of isomers) [ZPHE.psi.[CHOHCH2 ]GLYCAD (Mixture of Diastereomers), Z-PHE.PSI.[CHOHCH2 ]GLY-CAD (Mixture of Diastereomers)], the IC50 was 240 nM.

As to `CC(C)C[C@H](O)[C@H](O)[C@H](CC1CCCCC1)NC(=O)CCC(O)[C@H](Cc1ccccc1)NC(=O)OC(C)(C)C` (single isomer, unassigned) [BOCPHE.psi.[CHOHCH2 ]GLYCAD (Slow Eluting Diastereomer), BOC-PHE.PSI.[CHOHCH2 ]GLY-CAD (Slow Isomer)], the IC50 is 15 nM.

Regarding `CC(C)C[C@H](O)[C@H](O)[C@H](CC1CCCCC1)NC(=O)CCC(O)[C@H](Cc1ccccc1)NS(=O)(=O)N1CCOCC1` (single isomer, unassigned) [SMOPHE.psi.[CHOHCH2 ]GLYCAD (Isomer A), SMO-PHE.PSI.[CHOHCH2 ]GLY-CAD (Isomer A)], the IC50 turned out to be 2.3 nM.

Turning to `CC(C)C[C@H](O)[C@H](O)[C@H](CC1CCCCC1)NC(=O)CCC(O)[C@H](Cc1ccccc1)NS(=O)(=O)N1CCOCC1` (single isomer, unassigned) [SMOPHE.psi.[CHOHCH2 ]GLYCAD (Isomer B), SMO-PHE.PSI.[CHOHCH2 ]GLY-CAD (Isomer B)], the IC50 stood at 17 nM.

Turning to `CC(C)C[C@H](O)[C@H](O)[C@H](CC1CCCCC1)NC(=O)CCC(O)[C@H](Cc1ccccc1)NC(=O)OCc1ccccc1` (single isomer, unassigned) [ZPHE.psi.[CHOHCH2 ]GLYCAD (Slow Eluting Diastereomer), Z-PHE.PSI.[CHOHCH2 ]GLY-CAD (Slow Isomer)], the IC50 is 200 nM.

Turning to `CC(C)C[C@H](O)[C@H](O)[C@H](CC1CCCCC1)NC(=O)CNC[C@H](Cc1ccccc1)NS(=O)(=O)N1CCOCC1` [SMOPHE.psi.[CH2 NH]GLYCAD, SMO-PHE.PSI.[CH2 NH]GLY-CAD], the IC50 turned out to be 2600 nM.

With `CC(C)C[C@H](O)[C@H](O)[C@H](CC1CCCCC1)NC(=O)C=CC(O)[C@H](Cc1ccccc1)NS(=O)(=O)N1CCOCC1` (stereo partly drawn) [SMOPHE.psi.[CHOHCHCHCO]CAD, SMO-PHE.PSI.[CHOHCH=CHCO]CAD], the IC50 is 25 nM.

For the compound `CC(C)C[C@H](O)[C@H](O)[C@H](CC1CCCCC1)NC(=O)CCC(=O)[C@H](Cc1ccccc1)NS(=O)(=O)N1CCOCC1` [SMOPHE.psi.[COCH2 ]GLYCAD, SMO-PHE.PSI.[COCH2]GLY-CAD], the IC50 was 87 nM.

For the origin of these results see patent US5114937A, “Renin inhibiting nonpeptides” (Warner-Lambert Company, priority 1989, dated 1992).
